Legend:
H1355 T16 xenografts = details: for toxicity in treated mice: mouse, in vivo
Experimental: Animals were housed under standard, sterile conditions at UTSW animal facility. All experiments were carried out under approved IACUC protocols and followed UTSW animal care procedures. For tumor growth rate studies and docetaxel+cisplatin drug response comparisons, 6-8 week old female NOD/SCID mice were used. For all subsequent in vivo drug response studies, 6 week old female athymic nude mice were used (Charles River Labs, Jackson Labs). Experimental details are provided in supplemental information.
Parental and resistant NSCLC cell lines (1×10^6 cells in PBS or RPMI for H1299; 5×10^6 cells in PBS/matrigel for H1355 and HCC4017) were injected subcutaneously into the right flank of mice. Tumor growth was monitored by caliper measurements and tumor volume was calculated by 0.5×length×width^2). Treatment was started when tumors reached ˜150-200 mm3. Drug/Vehicle therapy was given to tumor volume matched pairs. Docetaxel (3 mg/kg) and cisplatin (3 mg/kg) were given i.p. once a week for 3 weeks. […]

[1] = tested on: H3K9me3 demethylase activity; test: Histone demethylase activity in tumor lysates by ELISA (H3K9me3); format: in vivo; details: H1299 T18 xenografts, drug-treated vs vehicle
Source text: To evaluate whether the targeted KDM enzymatic activity was reduced in the JmjC inhibitor-treated tumors in vivo, the inventors measured histone demethylase activity in drug-treated and vehicle-control tumor lysates by ELISA. […] Altogether, the results confirmed reduction of the targeted KDM enzymatic activity with cytostatic/cytotoxic effects in JmjC inhibitor-treated chemoresistant xenografts.

[2] = tested on: radioresistant (HCC95, HCC1195 and HCC2279) NSCLC cell lines; test: Clonogenic survival with IR, radioresistant NSCLC lines; format: cell-based, Human; details: all radioresistant NSCLC lines tested
Experimental: Cells were serially diluted to appropriate concentrations and plated into 60-mm dish in triplicate for 4 h. Then cells were treated with the indicated drugs, and irradiated 4 hours later with graded doses of radiation for concurrent treatment or irradiated and 4 hours later the drugs added for post-treatment. All cells were irradiated at room temperature in ambient air using a 137Cs source (Mark 1-68 irradiator, JL Shepherd & Associated). Surviving colonies were stained with crystal violet approximately 10 to 14 days later and colonies formed with more than 50 cells were counted. Clonogenic fraction of irradiated cells was normalized to the plating efficiency of unirradiated controls. The data are presented as the mean±SD. The curve S=e^−(αD+βD2) was fitted to the experimental data using a least square fit algorithm using the program Sigma Plot 11.0 (Systat Software, Inc.).

HR repair in U2OS cells = test: GFP HR reporter assay, U2OS cells; format: cell-based
Experimental: FIGS. 29A-29B. […] FIG. 29A: U2OS cells were transfected with the NHEJ or HR constructs (0.25 ug and 0.5 ug respectively) and a pN1-mCherry plasmid (0.05 ug). Then cells were seeded in the presence or absence of JIB-04. Cells were analyzed by flow cytometry for GFP expression 12 h and 24 h after transfection using green-versus-red fluorescent plot. 10,000 cells were analyzed in each sample and NHEJ or HR Repair Frequency (% GFP+ cells/% mCherry+ cells) plotted. Average+/−SEM of triplicates for one of two representative experiments is shown. ***p<0.001 vs control (Kruskal-Wallis). FIG. 29B: Representative FACS traces for the analysis of NHEJ and HR shown in A.

cell cycle distribution = test: Cell cycle analysis (PI staining); format: cell-based, Human; details: H1299 and A549; JIB-04 4 h with or without IR (2 Gy)
Experimental: NSCLCs were seeded in 6 wells plate, 24 h latter cells were pretreated with JIB-04 or DMSO for 4 h and exposed to a total dose of 2 Gy. Then cells were collected and fixed using 75% ethanol at […] for at least 24 hours. The cells were resuspended with PBS and incubated with 20 μl 1 mg/ml RNase A (Sigma) and 25 μg ml/ml propidium iodide (Sigma) for 30 min at room temperature. Experiment was done by triplicate, 20,000 cells were counted and the proportion of cells of different phase was analyzed using the software Flowjo.

H3K4me3 at DSBs = test: γH2AX immunoprecipitation, H3K4me3 at DSBs; format: cell-based, Human; details: JIB-04 4 h, IR 20 Gy
Experimental: For Histone demethylase activity determination 10×10^6 H1299 cells were seeded in P150 plates. Next day cells were preincubated with JIB-04 for 4 h and then irradiated with 20 Gy. Media was removed from cells, washed with PBS and fixed with 3% w/v PFA, 2% w/v sucrose in PBS for 1 min. Then cells were washed, scraped into media, pelleted by centrifugation (at 500 g for 2 min) and washed with Phosphatase inhibitor 1×, 1 μM Wortmannin (WM) and protease inhibitors 1× (Sigma). Cell pellets were re-suspended in 2.5× the packed cell volume (PCV) of Nucleosome Preparation Buffer (NPB, 10 mM HEPES [pH 7.9], 10 mM KCl, 1.0 mM CaCl2, 1.5 mM MgCl2, 0.34 M sucrose, 10% glycerol, 1 mM DTT, 0.1% Triton X-100) containing Phosphatase inhibitor, 1 μM Wortmannin (WM) and protease inhibitors (Sigma) and 100 U ml-1 micrococcal nuclease (MNase) and incubated at […] for 45 min (note: WM is required to block in vitro DNA-PK/ATM activation by MNase-produced DSBs). An equal volume of Nucleosome Solubilization Buffer (NSB=Nucleosome preparation buffer+2% [v/v] NP-40, 2% [v/v] Triton X-100, 600 mM NaCl) was then added. Samples were then vortexed, sonicated briefly and centrifuged at 10,000 rpm for 10 min. […] Protein levels on samples were quantified and equal amounts of protein run on 4-12% SDS acrylamide gels. […] Quantification was done using the using ImageJ software (National Institute of Health, NIH)

CCOC(=O)CCNc1cc(N2CCc3ccccc3CC2)nc(-c2ccccn2)n1 [GSK-J4]
toxicity in treated mice (H1355 T16 xenografts): No appreciable toxicity
H3K9me3 demethylase activity in tumor lysates [1]: without reducing H3K4me3 or H3K9me3 demethylase activity

Clc1ccc(N/N=C(\c2ccccc2)c2ccccn2)nc1 [JIB-04]
change in tumor volume relative to treatment start (H1355 T16 xenografts; GSK-J4 100 mg/kg i.p. 5x per week, JIB-04 50 mg/kg oral gavage 3x per week, 4 weeks): significant tumor shrinkage
toxicity in treated mice (H1355 T16 xenografts): No appreciable toxicity
H3K9me3 demethylase activity in tumor lysates [1]: significantly inhibited
survival fraction at 2 Gy of radiation (SF2) [2]: decreasing the survival fraction at 2 Gy of radiation (SF2)
HR repair (HR repair in U2OS cells): inhibits HR repair
cell cycle distribution (cell cycle distribution): do not Affect Cell Cycle Distribution
H3K4me3 at sites of DNA damage marked by γH2AX (H3K4me3 at DSBs): increased H3K4me3

From patent US11497740B2, “Use of Jumonji C demethylase inhibitors for the treatment and prevention of chemotherapy resistance and radioresistance in cancer” (THE BOARD OF REGENTS OF THE UNIVERSITY OF TEXAS SYSTEM, priority 2016, dated 2022)
